Tests used:
[1] = test system: entire face (precancerous lesions and normal, photodamaged skin); assay: Daily application of a pea size aliquot of 5% imiquimod to the entire face of Patient B; format: in vivo, human; conditions: pea size aliquot of 5% imiquimod every day to the entire face
Method: In a further example of a method of the invention, Patient B is treated with a pea size aliquot of 5% imiquimod every day to the entire face. […] One skilled in the art is familiar with many methods and techniques for evaluating or monitoring changes in the skin. […] For example, changes in pigmentation, texture, and the presence of wrinkles or fine lines can all be monitored through visual assessment. In addition, a mexameter can be used to measure skin pigment, a tewameter and/or evaporometer can be used to measure water content, a laser doppler device can measure blood flow, and a visioscan or optical profilometer can measure surface texture, wrinkles, and/or roughness. Any one or any combination of these methods can be used, in particular, to measure, monitor, or detect changes in fine wrinkles, mottled hyperpigmentation, tactile roughness, lentigines, course or deep wrinkles, telangiectasia, skin laxity, keratinocytic atypia, melanocytic atypia, and/or dermal elastosis.

Patient A skin = assay: Daily topical application of a 5% imiquimod composition to Patient A skin, visual inspection; format: in vivo, human; conditions: after 8 weeks of daily application
Text: In a first example of a method of the invention, a 5% imiquimod composition is applied to Patient A skin.
One skilled in the art is familiar with many methods and techniques for evaluating or monitoring changes in the skin. […] For example, changes in pigmentation, texture, and the presence of wrinkles or fine lines can all be monitored through visual assessment. In addition, a mexameter can be used to measure skin pigment, a tewameter and/or evaporometer can be used to measure water content, a laser doppler device can measure blood flow, and a visioscan or optical profilometer can measure surface texture, wrinkles, and/or roughness. Any one or any combination of these methods can be used, in particular, to measure, monitor, or detect changes in fine wrinkles, mottled hyperpigmentation, tactile roughness, lentigines, course or deep wrinkles, telangiectasia, skin laxity, keratinocytic atypia, melanocytic atypia, and/or dermal elastosis. Thus, the methods and composition of the invention can be used to treat and/or to evaluate possible treatment compositions where any one of these diseases or conditions are present or may be present.

In the case of `CC(C)Cn1cnc2c(N)nc3ccccc3c21` [imiquimod, 1-isobutyl-1H-imidazo [4,5,-C] quinolin-4-amine], the “appearance of non-precancerous skin (normal, photodamaged skin)” value [1] is reported as “looks smoother, with more regular pigmentation, and improvement of the fine wrinkles”, the “irritation of non-precancerous skin (normal, photodamaged skin)” value [1] is reported as “does not become irritated” and the “reaction of areas of the skin with precancerous lesions on the nose” value ([1]; biopsy shows BCC in precancerous regions) is reported as “became very red, eroded and irritated”. The “appearance of clinical wrinkles by visual inspection” value (Patient A skin) was “decreases”, the general skin appearance (Patient A skin) was “generally improved and healthier appearance” and the most noticeable improvement (Patient A skin) was “pigmentation and texture”.
